System: islets
Test: Toxicity to islets
Assay type: cell-based, mouse
Conditions: 3 μM

## CSCC[C@@H]1NC(=O)[C@@](C)(NC(=O)[C@H](CCCNC(=N)N)NC(=O)[C@H](CC(C)C)NC(=O)[C@H](CCC(=O)O)NC(=O)[C@H](CCCNC(=N)N)NC(=O)CNC(=O)[C@H](Cc2ccc(O)cc2)NC(=O)[C@H](CCCNC(=N)N)NC(=O)[C@H](CCC(N)=O)NC(=O)[C@H](C)NC(=O)[C@H](C)NC(=O)[C@H](Cc2c[nH]c3ccccc23)NC(=O)[C@H](CC(C)C)NC(=O)[C@@H](N)CC(N)=O)CCCC=CCCC[C@@](C)(C(=O)N[C@@H](Cc2ccccc2)C(=O)N[C@H](C(=O)N[C@@H](CC(=O)O)C(=O)N[C@@H](CO)C(=O)N[C@@H](Cc2ccccc2)C(=O)N[C@@H](CCCCN)C(=O)N[C@@H](CCCCN)C(=O)O)C(C)C)NC(=O)[C@H](CC(=O)O)NC(=O)[C@H](CO)NC1=O [BAD SAHBA]
  toxicity to islets: not toxic to islets
